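Cells were grown in 96-well plates and exposed to each compound for 48 hours at five concentrations; endpoints were interpolated linearly between bracketing concentrations, or set to the highest concentration if not reached. GI50 is the concentration that inhibits growth by half. The concentration for full growth arrest is given as TGI.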
Assays:
Test in all cases: growth of human tumour cells (NCI), 48 h
786-0 renal = tested on: 786-0 renal
A498 renal = tested on: A498 renal
A549 NSCLC = tested on: A549 NSCLC
ACHN renal = tested on: ACHN renal
BT-549 breast = tested on: BT-549 breast
CAKI-1 renal = tested on: CAKI-1 renal
CCRF-CEM leukemia = tested on: CCRF-CEM leukemia
COLO 205 colon = tested on: COLO 205 colon
DU-145 prostate = tested on: DU-145 prostate
EKVX NSCLC = tested on: EKVX NSCLC
HCC-2998 colon = tested on: HCC-2998 colon
HCT-116 colon = tested on: HCT-116 colon
HCT-15 colon = tested on: HCT-15 colon
HL-60(TB) leukemia = tested on: HL-60(TB) leukemia
HOP-62 NSCLC = tested on: HOP-62 NSCLC
HS 578T breast = tested on: HS 578T breast
HT29 colon = tested on: HT29 colon
IGROV1 ovarian = tested on: IGROV1 ovarian
K-562 leukemia = tested on: K-562 leukemia
KM12 colon = tested on: KM12 colon
LOX IMVI melanoma = tested on: LOX IMVI melanoma
M14 melanoma = tested on: M14 melanoma
MALME-3M melanoma = tested on: MALME-3M melanoma
MCF7 breast = tested on: MCF7 breast
MDA-MB-231 breast = tested on: MDA-MB-231 breast
MDA-MB-435 = tested on: MDA-MB-435
MOLT-4 leukemia = tested on: MOLT-4 leukemia
NCI-H226 lung = tested on: NCI-H226 lung
NCI-H23 lung = tested on: NCI-H23 lung
NCI-H460 lung = tested on: NCI-H460 lung
NCI-H522 lung = tested on: NCI-H522 lung
OVCAR-8 ovarian = tested on: OVCAR-8 ovarian
PC-3 prostate = tested on: PC-3 prostate
RPMI-8226 leukemia = tested on: RPMI-8226 leukemia
SF-268 CNS = tested on: SF-268 CNS
SF-295 CNS = tested on: SF-295 CNS
SF-539 CNS = tested on: SF-539 CNS
SK-MEL-28 melanoma = tested on: SK-MEL-28 melanoma
SK-MEL-5 melanoma = tested on: SK-MEL-5 melanoma
SK-OV-3 ovarian = tested on: SK-OV-3 ovarian
SN12C renal = tested on: SN12C renal
SNB-19 CNS = tested on: SNB-19 CNS
SNB-75 CNS = tested on: SNB-75 CNS
SR leukemia = tested on: SR leukemia
SW-620 colon = tested on: SW-620 colon
T-47D breast = tested on: T-47D breast
TK-10 renal = tested on: TK-10 renal
UACC-257 melanoma = tested on: UACC-257 melanoma
UACC-62 melanoma = tested on: UACC-62 melanoma
UO-31 renal = tested on: UO-31 renal
NCI/ADR-RES ovarian = tested on: NCI/ADR-RES ovarian
OVCAR-3 ovarian = tested on: OVCAR-3 ovarian
OVCAR-4 ovarian = tested on: OVCAR-4 ovarian
OVCAR-5 ovarian = tested on: OVCAR-5 ovarian
RXF 393 renal = tested on: RXF 393 renal
SK-MEL-2 melanoma = tested on: SK-MEL-2 melanoma
U251 CNS = tested on: U251 CNS

Cc1nn(C(=O)Cc2ccccc2)c2c1C(c1ccccc1O)SC(N)=N2 (stereo not given)
TGI (786-0 renal): > 100 µM
TGI (A498 renal): > 100 µM
TGI (A549 NSCLC): > 100 µM
TGI (ACHN renal): > 100 µM
TGI (BT-549 breast): > 100 µM
TGI (CAKI-1 renal): > 100 µM
TGI (CCRF-CEM leukemia): > 100 µM
TGI (COLO 205 colon): > 100 µM
TGI (DU-145 prostate): > 100 µM
TGI (EKVX NSCLC): > 100 µM
TGI (HCC-2998 colon): > 100 µM
TGI (HCT-116 colon): > 100 µM
TGI (HCT-15 colon): > 100 µM
TGI (HL-60(TB) leukemia): > 100 µM
TGI (HOP-62 NSCLC): > 100 µM
TGI (HS 578T breast): > 100 µM
TGI (HT29 colon): > 100 µM
TGI (IGROV1 ovarian): > 100 µM
TGI (K-562 leukemia): > 100 µM
TGI (KM12 colon): > 100 µM
TGI (LOX IMVI melanoma): > 100 µM
TGI (M14 melanoma): > 100 µM
TGI (MALME-3M melanoma): > 100 µM
TGI (MCF7 breast): > 100 µM
TGI (MDA-MB-231 breast): > 100 µM
TGI (MDA-MB-435): > 100 µM
TGI (MOLT-4 leukemia): > 100 µM
TGI (NCI-H226 lung): > 100 µM
TGI (NCI-H23 lung): > 100 µM
TGI (NCI-H460 lung): > 100 µM
TGI (NCI-H522 lung): > 100 µM
TGI (OVCAR-8 ovarian): > 100 µM
TGI (PC-3 prostate): > 100 µM
TGI (RPMI-8226 leukemia): > 100 µM
TGI (SF-268 CNS): > 100 µM
TGI (SF-295 CNS): > 100 µM
TGI (SF-539 CNS): > 100 µM
TGI (SK-MEL-28 melanoma): > 100 µM
TGI (SK-MEL-5 melanoma): > 100 µM
TGI (SK-OV-3 ovarian): > 100 µM
TGI (SN12C renal): > 100 µM
TGI (SNB-19 CNS): > 100 µM
TGI (SNB-75 CNS): > 100 µM
TGI (SR leukemia): > 100 µM
TGI (SW-620 colon): > 100 µM
TGI (T-47D breast): > 100 µM
TGI (TK-10 renal): > 100 µM
TGI (UACC-257 melanoma): > 100 µM
TGI (UACC-62 melanoma): > 100 µM
TGI (UO-31 renal): > 100 µM

COc1ccc(C(=O)/C=C/c2ccc(/C=C/c3cc(OC)c(OC)c(OC)c3)cc2)cc1
GI50 (786-0 renal): 10.4 µM
TGI (786-0 renal): 71.1 µM
GI50 (A498 renal): 18.6 µM
TGI (A498 renal): > 100 µM
GI50 (A549 NSCLC): 4.67 µM
TGI (A549 NSCLC): 80.9 µM
GI50 (ACHN renal): 11.6 µM
TGI (ACHN renal): > 100 µM
GI50 (BT-549 breast): 3.36 µM
TGI (BT-549 breast): 16.8 µM
GI50 (CAKI-1 renal): 14.6 µM
TGI (CAKI-1 renal): > 100 µM
GI50 (CCRF-CEM leukemia): 4.15 µM
TGI (CCRF-CEM leukemia): > 100 µM
GI50 (COLO 205 colon): 13.7 µM
TGI (COLO 205 colon): > 100 µM
GI50 (DU-145 prostate): 10.2 µM
TGI (DU-145 prostate): > 100 µM
GI50 (HCC-2998 colon): 38.5 µM
TGI (HCC-2998 colon): > 100 µM
GI50 (HCT-116 colon): 2.62 µM
TGI (HCT-116 colon): > 100 µM
GI50 (HCT-15 colon): 2.42 µM
TGI (HCT-15 colon): > 100 µM
GI50 (HL-60(TB) leukemia): 4.49 µM
TGI (HL-60(TB) leukemia): > 100 µM
GI50 (HOP-62 NSCLC): 12.8 µM
TGI (HOP-62 NSCLC): 63.8 µM
GI50 (HS 578T breast): 9.11 µM
TGI (HS 578T breast): > 100 µM
GI50 (HT29 colon): 4.17 µM
TGI (HT29 colon): > 100 µM
GI50 (IGROV1 ovarian): 9.24 µM
TGI (IGROV1 ovarian): 76.4 µM
GI50 (K-562 leukemia): 3.03 µM
TGI (K-562 leukemia): > 100 µM
GI50 (KM12 colon): 3.75 µM
TGI (KM12 colon): 83.9 µM
GI50 (LOX IMVI melanoma): 3.76 µM
TGI (LOX IMVI melanoma): 60.9 µM
GI50 (M14 melanoma): 9.61 µM
TGI (M14 melanoma): > 100 µM
GI50 (MALME-3M melanoma): 13.2 µM
TGI (MALME-3M melanoma): > 100 µM
GI50 (MCF7 breast): 2.18 µM
TGI (MCF7 breast): 36.6 µM
GI50 (MDA-MB-231 breast): 10.2 µM
TGI (MDA-MB-231 breast): > 100 µM
GI50 (MDA-MB-435): 4.28 µM
TGI (MDA-MB-435): 47.7 µM
GI50 (MOLT-4 leukemia): 3.49 µM
TGI (MOLT-4 leukemia): > 100 µM
GI50 (NCI-H226 lung): 3.57 µM
TGI (NCI-H226 lung): 22.8 µM
GI50 (NCI-H23 lung): 5.39 µM
TGI (NCI-H23 lung): 65.9 µM
GI50 (NCI-H460 lung): 8.65 µM
TGI (NCI-H460 lung): > 100 µM
GI50 (NCI-H522 lung): 3.3 µM
TGI (NCI-H522 lung): 30.7 µM
GI50 (NCI/ADR-RES ovarian): 5.46 µM
TGI (NCI/ADR-RES ovarian): > 100 µM
GI50 (OVCAR-3 ovarian): 3.92 µM
TGI (OVCAR-3 ovarian): 14.3 µM
GI50 (OVCAR-4 ovarian): 6.31 µM
TGI (OVCAR-4 ovarian): 47.3 µM
GI50 (OVCAR-5 ovarian): 34.1 µM
TGI (OVCAR-5 ovarian): > 100 µM
GI50 (OVCAR-8 ovarian): 3.76 µM
TGI (OVCAR-8 ovarian): 61.1 µM
GI50 (PC-3 prostate): 5.65 µM
TGI (PC-3 prostate): > 100 µM
GI50 (RPMI-8226 leukemia): 2.57 µM
TGI (RPMI-8226 leukemia): 8.54 µM
GI50 (RXF 393 renal): 8.01 µM
TGI (RXF 393 renal): 43.6 µM
GI50 (SF-268 CNS): 6.08 µM
TGI (SF-268 CNS): 88.3 µM
GI50 (SF-295 CNS): 9.01 µM
TGI (SF-295 CNS): > 100 µM
GI50 (SF-539 CNS): 12.2 µM
TGI (SF-539 CNS): 78.3 µM
GI50 (SK-MEL-2 melanoma): 18.9 µM
TGI (SK-MEL-2 melanoma): > 100 µM
GI50 (SK-MEL-28 melanoma): 16.9 µM
TGI (SK-MEL-28 melanoma): > 100 µM
GI50 (SK-MEL-5 melanoma): 3.39 µM
TGI (SK-MEL-5 melanoma): 19.2 µM
GI50 (SK-OV-3 ovarian): 15.6 µM
TGI (SK-OV-3 ovarian): 64.5 µM
GI50 (SN12C renal): 9.61 µM
TGI (SN12C renal): > 100 µM
GI50 (SNB-19 CNS): 21.1 µM
TGI (SNB-19 CNS): > 100 µM
GI50 (SNB-75 CNS): 5.5 µM
TGI (SNB-75 CNS): 47.7 µM
GI50 (SR leukemia): 1.98 µM
TGI (SR leukemia): > 100 µM
GI50 (SW-620 colon): 4.5 µM
TGI (SW-620 colon): > 100 µM
GI50 (T-47D breast): 6.19 µM
TGI (T-47D breast): > 100 µM
GI50 (U251 CNS): 5.09 µM
TGI (U251 CNS): 54.7 µM
GI50 (UACC-257 melanoma): 9 µM
TGI (UACC-257 melanoma): > 100 µM
GI50 (UACC-62 melanoma): 7.13 µM
TGI (UACC-62 melanoma): > 100 µM
GI50 (UO-31 renal): 4.64 µM
TGI (UO-31 renal): > 100 µM

Reference: PubChem BioAssay (NCI)
